Patent US20250353891A1 (MEDIMMUNE LIMITED, priority 2022, published 2025)
Starred links: 1 amine or outer side, 2 acyl side, 3 side chain; linkers in the order of their positions; H or OH if unused. Non-standard residues stand in square brackets, D forms with d. Residues, ends and D or L forms follow the SMILES beside them. Groups on a side chain read outwards from the residue. *: point of attachment. C20 diacid = O=C(O)CCCCCCCCCCCCCCCCCCC(=O)*; C18 diacid = O=C(O)CCCCCCCCCCCCCCCCC(=O)*; γGlu = O=C(O)[C@H](CCC(=O)[*:2])N[*:1]; αMeF = C[C@](N)(Cc1ccccc1)C(=O)O; AEEA = NCCOCCOCC(=O)O; Aib = CC(C)(N)C(=O)O

Key:
[1] = target: human GLP-1 receptor (hGLP-1R) (Homo sapiens, UniProt P43220); experiment: cAMP production (HTRF) in CHO cells expressing hGLP-1R; type: cell-based; set-up: expressed in transfected cells; conditions: for EC50: Table 6, peptides modified at position 17, cAMP in CHO hGLP-1R cells, geometric mean, read-out: hGLP-1R EC50; for % Relative Potency Ratio: Table 6, % GLP-1R activity relative to GLP-1 / % GlucR activity relative to glucagon
Chain of human GLP-1 receptor (hGLP-1R) (P43220 24-463): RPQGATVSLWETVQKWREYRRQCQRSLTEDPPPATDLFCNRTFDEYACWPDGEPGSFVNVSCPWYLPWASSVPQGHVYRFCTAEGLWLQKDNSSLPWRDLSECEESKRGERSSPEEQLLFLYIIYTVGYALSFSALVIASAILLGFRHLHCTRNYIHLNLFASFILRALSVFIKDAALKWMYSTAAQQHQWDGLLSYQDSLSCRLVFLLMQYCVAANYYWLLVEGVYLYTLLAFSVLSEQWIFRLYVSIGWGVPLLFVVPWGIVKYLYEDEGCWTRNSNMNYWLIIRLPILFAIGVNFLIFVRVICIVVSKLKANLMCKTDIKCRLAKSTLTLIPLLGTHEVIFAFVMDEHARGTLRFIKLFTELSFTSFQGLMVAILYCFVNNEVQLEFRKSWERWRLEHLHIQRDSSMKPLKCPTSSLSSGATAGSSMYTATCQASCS
How it was run: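 Cells were resuspended in assay buffer at batch-optimized density, typically 1×10^5 cells/mL for hGLP-1R and 2×10^5 cells/mL for hGCGR. After 30 min incubation at room temperature with compound, cAMP was measured by two-step HTRF. EC50 values came from 4-parameter logistic fits of % Delta F.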

[2] = target: human glucagon receptor (hGCGR) (Homo sapiens, UniProt P47871); experiment: cAMP production (HTRF) in CHO cells expressing hGCGR; type: cell-based; set-up: expressed in transfected cells; conditions: Table 6, peptides modified at position 17; cAMP in CHO hGCGR cells; geometric mean; read-out: hGluc-R EC50
Chain of human glucagon receptor (hGCGR) (P47871 26-477): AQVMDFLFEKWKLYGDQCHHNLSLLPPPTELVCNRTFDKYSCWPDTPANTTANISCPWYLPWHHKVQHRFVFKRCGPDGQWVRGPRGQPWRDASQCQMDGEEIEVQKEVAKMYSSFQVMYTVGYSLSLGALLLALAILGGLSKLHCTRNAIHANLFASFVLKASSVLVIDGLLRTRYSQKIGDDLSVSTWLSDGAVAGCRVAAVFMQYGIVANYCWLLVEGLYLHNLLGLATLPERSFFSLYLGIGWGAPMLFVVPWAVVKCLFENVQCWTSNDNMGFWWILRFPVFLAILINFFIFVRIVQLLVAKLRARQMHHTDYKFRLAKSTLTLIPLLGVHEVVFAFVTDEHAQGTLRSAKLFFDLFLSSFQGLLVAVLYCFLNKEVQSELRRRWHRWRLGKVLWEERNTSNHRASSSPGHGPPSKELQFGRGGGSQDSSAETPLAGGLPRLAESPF
Procedure: Cells were re-suspended in assay buffer at a batch-dependent optimized concentration (typically hGLP-1R cells at 1×10^5 cells/mL, hGCGR cells at 2×10^5 cells/mL).
Cells were added to the assay plate using a multidrop dispenser and incubated at room temperature for 30 minutes before measuring the cAMP level using a cAMP dynamic 2 homogeneous time resolved Fluorescence (HTRF) kit (Cisbio Bioassays #62AM4PEJ) following the two-step protocol as per manufacturer's recommendations. In brief, anti-cAMP cryptate (donor fluorophore) and cAMP-d2 (acceptor fluorophore) were made up separately by diluting each 1 in 20 in conjugate and lysis buffer provided in the kit. Anti-CAMP cryptate was added to all wells of the assay plate, followed by cAMP-d2 added to all wells except non-specific binding (NSB) wells (to which conjugate and lysis buffer was added).
Data was transformed to % Delta F as described in the manufacturer's guidelines and analyzed by 4-parameter logistic fit to determine EC50 values.

Compound | EC50 [1] | % Relative Potency Ratio [1] | EC50 [2]
CC[C@H](C)[C@H](NC(=O)[C@H](Cc1c[nH]c2ccccc12)NC(=O)[C@H](CCC(N)=O)NC(=O)[C@@H](NC(=O)[C@H](Cc1ccccc1)NC(=O)[C@H](CC(=O)O)NC(=O)[C@H](CCC(N)=O)NC(=O)[C@H](C)NC(=O)[C@H](C)NC(=O)[C@H](CCCCNC(=O)COCCOCCNC(=O)COCCOCCNC(=O)CC[C@H](NC(=O)CCCCCCCCCCCCCCCCC(=O)O)C(=O)O)NC(=O)[C@H](CO)NC(=O)[C@H](CC(=O)O)NC(=O)[C@H](CC(C)C)NC(=O)[C@](C)(Cc1ccccc1)NC(=O)[C@H](CCCCN)NC(=O)[C@H](CO)NC(=O)[C@@H](NC(=O)[C@H](CC(=O)O)NC(=O)[C@H](CO)NC(=O)[C@@H](NC(=O)[C@](C)(Cc1ccccc1)NC(=O)[C@H](CO)NC(=O)CNC(=O)[C@H](Cc1c[nH]cn1)NC(=O)C(C)(C)NC(=O)[C@@H](N)Cc1c[nH]cn1)[C@@H](C)O)C(C)C)C(C)C)C(=O)N[C@@H](C)C(=O)N[C@@H](CC(N)=O)C(=O)N[C@H](C(N)=O)[C@@H](C)O [Peptide 8] (H-H[Aib]HGS[αMeF]TSDVSK[αMeF]LDSK([AEEA-AEEA-γGlu-C18 diacid])AAQDFVQWIANT-NH2; N-terminus assumed) | 0.0878 nM | 1.2 | 0.0536 nM
CC[C@H](C)[C@H](NC(=O)C(C)(C)NC(=O)[C@H](CCC(N)=O)NC(=O)[C@@H](NC(=O)[C@H](Cc1ccccc1)NC(=O)[C@H](CC(=O)O)NC(=O)[C@H](CCC(N)=O)NC(=O)[C@H](C)NC(=O)[C@H](C)NC(=O)[C@H](CCCCNC(=O)COCCOCCNC(=O)COCCOCCNC(=O)CC[C@H](NC(=O)CCCCCCCCCCCCCCCCC(=O)O)C(=O)O)NC(=O)[C@H](CO)NC(=O)[C@H](CC(=O)O)NC(=O)[C@H](CC(C)C)NC(=O)[C@](C)(Cc1ccccc1)NC(=O)[C@H](CCCCN)NC(=O)[C@H](CO)NC(=O)[C@@H](NC(=O)[C@H](CC(=O)O)NC(=O)[C@H](CO)NC(=O)[C@@H](NC(=O)[C@](C)(Cc1ccccc1)NC(=O)[C@H](CO)NC(=O)CNC(=O)[C@H](Cc1c[nH]cn1)NC(=O)C(C)(C)NC(=O)[C@@H](N)Cc1c[nH]cn1)[C@@H](C)O)C(C)C)C(C)C)C(=O)N[C@@H](C)C(=O)N[C@@H](CC(N)=O)C(=O)N[C@H](C(N)=O)[C@@H](C)O [Peptide 11] (H-H[Aib]HGS[αMeF]TSDVSK[αMeF]LDSK([AEEA-AEEA-γGlu-C18 diacid])AAQDFVQ[Aib]IANT-NH2) | 0.157 nM | 1.5 | 0.118 nM
CC[C@H](C)[C@H](NC(=O)C(C)(C)NC(=O)[C@H](CCC(N)=O)NC(=O)[C@@H](NC(=O)[C@H](Cc1ccccc1)NC(=O)[C@H](CC(=O)O)NC(=O)[C@H](CCCNC(=N)N)NC(=O)[C@H](C)NC(=O)[C@H](C)NC(=O)[C@H](CCCCNC(=O)COCCOCCNC(=O)COCCOCCNC(=O)CC[C@H](NC(=O)CCCCCCCCCCCCCCCCC(=O)O)C(=O)O)NC(=O)[C@H](CO)NC(=O)[C@H](CC(=O)O)NC(=O)[C@H](CC(C)C)NC(=O)[C@](C)(Cc1ccccc1)NC(=O)[C@H](CCCCN)NC(=O)[C@H](CO)NC(=O)[C@@H](NC(=O)[C@H](CC(=O)O)NC(=O)[C@H](CO)NC(=O)[C@@H](NC(=O)[C@](C)(Cc1ccccc1)NC(=O)[C@H](CO)NC(=O)CNC(=O)[C@H](Cc1c[nH]cn1)NC(=O)C(C)(C)NC(=O)[C@@H](N)Cc1c[nH]cn1)[C@@H](C)O)C(C)C)C(C)C)C(=O)N[C@@H](C)C(=O)N[C@@H](CC(N)=O)C(=O)N[C@H](C(N)=O)[C@@H](C)O [Peptide 12] (H-H[Aib]HGS[αMeF]TSDVSK[αMeF]LDSK([AEEA-AEEA-γGlu-C18 diacid])AARDFVQ[Aib]IANT-NH2; N-terminus assumed) | 0.0145 nM | 6.5 | 0.0477 nM
CC[C@H](C)[C@H](NC(=O)C(C)(C)NC(=O)[C@H](CCC(N)=O)NC(=O)[C@@H](NC(=O)[C@](C)(Cc1ccccc1)NC(=O)[C@H](CC(=O)O)NC(=O)[C@H](CCCNC(=N)N)NC(=O)[C@H](C)NC(=O)[C@H](C)NC(=O)[C@H](CCCCNC(=O)COCCOCCNC(=O)COCCOCCNC(=O)CC[C@H](NC(=O)CCCCCCCCCCCCCCCCC(=O)O)C(=O)O)NC(=O)[C@H](CO)NC(=O)[C@H](CC(=O)O)NC(=O)[C@H](CC(C)C)NC(=O)[C@](C)(Cc1ccccc1)NC(=O)[C@H](CCCCN)NC(=O)[C@H](CO)NC(=O)[C@@H](NC(=O)[C@H](CC(=O)O)NC(=O)[C@H](CO)NC(=O)[C@@H](NC(=O)[C@](C)(Cc1ccccc1)NC(=O)[C@H](CO)NC(=O)CNC(=O)[C@H](Cc1c[nH]cn1)NC(=O)C(C)(C)NC(=O)[C@@H](N)Cc1c[nH]cn1)[C@@H](C)O)C(C)C)C(C)C)C(=O)N[C@@H](C)C(=O)N[C@@H](CC(N)=O)C(=O)N[C@H](C(N)=O)[C@@H](C)O [Peptide 13] (H-H[Aib]HGS[αMeF]TSDVSK[αMeF]LDSK([AEEA-AEEA-γGlu-C18 diacid])AARD[αMeF]VQ[Aib]IANT-NH2; N-terminus assumed) | 0.0159 nM | 5.5 | 0.044 nM

Further molecules by falling EC50 [1], results first:

EC50 [1] | % Relative Potency Ratio [1] | EC50 [2] | Compound
0.658 nM | 1.1 | 0.377 nM | CC[C@H](C)[C@H](NC(=O)[C@H](Cc1c[nH]c2ccccc12)NC(=O)[C@H](CCC(=O)O)NC(=O)[C@@H](NC(=O)[C@H](Cc1ccccc1)NC(=O)[C@H](CC(=O)O)NC(=O)[C@H](CCCNC(=N)N)NC(=O)[C@H](C)NC(=O)[C@H](C)NC(=O)[C@H](CCCCNC(=O)COCCOCCNC(=O)COCCOCCNC(=O)CC[C@H](NC(=O)CCCCCCCCCCCCCCCCC(=O)O)C(=O)O)NC(=O)[C@H](CO)NC(=O)[C@H](CC(=O)O)NC(=O)[C@H](CC(C)C)NC(=O)[C@](C)(Cc1ccccc1)NC(=O)[C@H](CCCCN)NC(=O)[C@H](CO)NC(=O)[C@@H](NC(=O)[C@H](CC(=O)O)NC(=O)[C@H](CO)NC(=O)[C@@H](NC(=O)[C@](C)(Cc1ccccc1)NC(=O)[C@H](CO)NC(=O)CNC(=O)[C@H](Cc1c[nH]cn1)NC(=O)C(C)(C)NC(=O)[C@@H](N)Cc1c[nH]cn1)[C@@H](C)O)C(C)C)C(C)C)C(=O)N[C@@H](C)C(=O)N[C@@H](CC(N)=O)C(=O)N[C@H](C(N)=O)[C@@H](C)O [Peptide 10] (H-H[Aib]HGS[αMeF]TSDVSK[αMeF]LDSK([AEEA-AEEA-γGlu-C18 diacid])AARDFVEWIANT-NH2; N-terminus assumed)
0.242 nM | 2.3 | 0.279 nM | CC[C@H](C)[C@H](NC(=O)[C@H](Cc1c[nH]c2ccccc12)NC(=O)[C@H](CCC(N)=O)NC(=O)[C@@H](NC(=O)[C@H](Cc1ccccc1)NC(=O)[C@H](CC(=O)O)NC(=O)[C@H](CCCNC(=N)N)NC(=O)[C@H](C)NC(=O)[C@H](C)NC(=O)[C@H](CCCCNC(=O)COCCOCCNC(=O)COCCOCCNC(=O)CC[C@H](NC(=O)CCCCCCCCCCCCCCCCC(=O)O)C(=O)O)NC(=O)[C@H](CO)NC(=O)[C@H](CC(=O)O)NC(=O)[C@H](CC(C)C)NC(=O)[C@](C)(Cc1ccccc1)NC(=O)[C@H](CCCCN)NC(=O)[C@H](CO)NC(=O)[C@@H](NC(=O)[C@H](CC(=O)O)NC(=O)[C@H](CO)NC(=O)[C@@H](NC(=O)[C@](C)(Cc1ccccc1)NC(=O)[C@H](CO)NC(=O)CNC(=O)[C@H](Cc1c[nH]cn1)NC(=O)C(C)(C)NC(=O)[C@@H](N)Cc1c[nH]cn1)[C@@H](C)O)C(C)C)C(C)C)C(=O)N[C@@H](C)C(=O)N[C@@H](CC(N)=O)C(=O)N[C@H](C(N)=O)[C@@H](C)O [Peptide 9] (H-H[Aib]HGS[αMeF]TSDVSK[αMeF]LDSK([AEEA-AEEA-γGlu-C18 diacid])AARDFVQWIANT-NH2; N-terminus assumed)
0.0938 nM | 9.7 | 0.462 nM | CC[C@H](C)[C@H](NC(=O)C(C)(C)NC(=O)[C@H](CCC(N)=O)NC(=O)[C@@H](NC(=O)[C@](C)(Cc1ccccc1)NC(=O)[C@H](CC(=O)O)NC(=O)[C@H](CCCNC(=N)N)NC(=O)[C@H](C)NC(=O)[C@H](C)NC(=O)[C@H](CCCCNC(=O)COCCOCCNC(=O)COCCOCCNC(=O)CC[C@H](NC(=O)CC[C@H](NC(=O)CCCCCCCCCCCCCCCCCCC(=O)O)C(=O)O)C(=O)O)NC(=O)[C@H](CO)NC(=O)[C@H](CC(=O)O)NC(=O)[C@H](CC(C)C)NC(=O)[C@](C)(Cc1ccccc1)NC(=O)[C@H](CCCCN)NC(=O)[C@H](CO)NC(=O)[C@@H](NC(=O)[C@H](CC(=O)O)NC(=O)[C@H](CO)NC(=O)[C@@H](NC(=O)[C@](C)(Cc1ccccc1)NC(=O)[C@H](CO)NC(=O)CNC(=O)[C@H](Cc1c[nH]cn1)NC(=O)C(C)(C)NC(=O)[C@@H](N)Cc1c[nH]cn1)[C@@H](C)O)C(C)C)C(C)C)C(=O)N[C@@H](C)C(=O)N[C@@H](CC(N)=O)C(=O)N[C@H](C(N)=O)[C@@H](C)O [Peptide 14] (H-H[Aib]HGS[αMeF]TSDVSK[αMeF]LDSK([AEEA-AEEA-γGlu-γGlu-C20 diacid])AARD[αMeF]VQ[Aib]IANT-NH2; N-terminus assumed)
